Data taken from patent publication US9532988B2, “Pharmaceutical composition comprising a TRPA1 antagonist and an analgesic agent” (GLENMARK PHARMACEUTICALS S.A., priority 2013, dated 2017).

How the values were obtained:
[1] = system: MIA-osteoarthritis induced mechanical punctate allodynia in male SD rats; assay: MIA-induced mechanical punctate allodynia (dynamic von Frey); format: in vivo, rat (Sprague-Dawley); conditions: Compound III 0.132 mg/kg p.o. alone; 0.5-4 h post-dose; Example 19, Table 22, FIG. 25
Description: MIA was dissolved in 0.9% sterile saline and administered using a 26½ gauge needle. Contralateral knees were injected intra-articularly with 50 μl of 0.9% sterile saline. On the day of the experiment (20 h after MIA injection), rats were evaluated for pre-dose mechanical punctate allodynia to assess the effect of MIA. After regrouping the rats after randomization, the pre- & post-dose mechanical allodynia was assessed for both hind paws. […] The % reversal of punctate allodynia was calculated as per standard procedure. Animals were weighed and grouped as described in Table 22.

[2] = system: Streptozotocin (STZ)-induced diabetic peripheral neuropathic hyperalgesia in male SD rats; assay: Streptozotocin-induced diabetic peripheral neuropathic hyperalgesia; format: in vivo, rat (Sprague-Dawley); conditions: Compound III 0.04 mg/kg p.o. alone; 0.5-4 h post-dose; Example 18, Table 21, FIG. 24
Description: (§1) Streptozotocin (STZ)-induced neuropathic hyperalgesia in rats is a model to screen potential therapeutics for diabetic painful neuropathy in human patients. Streptozotocin was dissolved in freshly prepared cold citrate buffer (0.1 M, pH—4.4). Diabetes was induced in overnight fasted male SD rats (weighing 250-300 g) by a single intraperitoneal injection of Streptozotocin (Sigma, 55 mg/kg, i.p). […] On the day of the experiment (13th day after STZ injection) rats were assessed for mechanical hyperalgesia using Randall-Sellito paw pressure analgesymeter. Animals were weighed and grouped as described in Table 9.
Rats were orally dosed with vehicle, duloxetine hydrochloride, Compound I potassium salt and combination (Duloxetine+Compound I).
as §1, with “pH —4.4).” for “pH—4.4).”, “Sprague Dawley” for “SD”, “rats” for “rats (weighing 250-300 g)”, “analgesymeter.” for “analgesymeter. Animals were weighed and grouped as described in Table 9.”
Rats were orally dosed with vehicle, different doses of duloxetine hydrochloride, Compound II disodium salt and combinations (duloxetine+Compound II—simultaneously). The post-dose paw withdrawal thresholds were measured at 1, 2 & 4 h after oral administration. […] Animals were weighed and grouped as described in Table 16.
Rats were orally dosed with vehicle, different doses of duloxetine hydrochloride, Compound III disodium salt and combinations (duloxetine+Compound III—simultaneously). […] Animals were weighed and grouped as described in Table 21.

[3] = system: FCA-induced thermal hyperalgesia in male SD rats; assay: FCA-induced thermal hyperalgesia (Hargreaves apparatus); format: in vivo, rat (Sprague-Dawley); conditions: Compound III 0.039 mg/kg p.o. alone; 0.5-4 h post-dose; Example 16, Table 19, FIG. 22
Description: The % reversal of mechanical/thermal hyperalgesia was calculated.

[4] = system: Freund's Complete Adjuvant (FCA)-induced inflammatory mechanical hyperalgesia in male SD rats; assay: FCA-induced inflammatory mechanical hyperalgesia (Randall-Sellitto paw pressure);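 further: left hind paw withdrawal threshold (g) to rising pressure on an analgesymeter, FCA injected intraplantar 24 h earlier, thresholds taken before and 0.5, 1, 2 and 4 h after oral dosing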; conditions: Compound III 0.039 mg/kg p.o. alone
Description: Materials: FCA containing 1 mg/ml of heat killed and dried Mycobacterium tuberculosis (H37RA strain) emulsified in mineral oil and mannide mono-oleate; Male SD rats weighing 170-220 g; Paw Pressure Analgesymeter (37215, Ugo Basile, Comerio, Italy); Compound I potassium; and Diclofenac sodium
Naïve withdrawal thresholds of the left hind paw to an increasing pressure (g) stimulus were measured in rats using the analgesymeter. FCA was injected (30 μl) into the plantar region of left paw of rats to induce the inflammatory hyperalgesia. Mechanical hyperalgesia (24 h after FCA injection) was assessed by measuring hind paw withdrawal thresholds.
The post-dose paw withdrawal thresholds were measured at 0.5, 1, 2 & 4 h after oral administration. The percentage (%) reversal of mechanical hyperalgesia was calculated as per standard procedure.
Naïve withdrawal thresholds of the left hind paw to an increasing pressure (g) stimulus were measured in rats using the analgesymeter. Freund's Complete Adjuvant (FCA) was injected (30 μl) into the plantar region of left paw of rats to induce the inflammatory hyperalgesia. Mechanical hyperalgesia (24 h after FCA injection) was assessed both pre- & post-dosing of drugs by measuring hind paw withdrawal thresholds. […] The post-dose paw withdrawal thresholds were measured at 0.5, 1, 2 & 4 h after oral administration. The % reversal of mechanical hyperalgesia was calculated.
Naïve withdrawal thresholds of the left hind paw to an increasing pressure (g) stimulus were measured in rats using the analgesymeter.

Question: With `Cn1c(=O)c2c(CC(=O)N=c3scc(-c4ccc(C(F)(F)F)c(F)c4F)n3COP(=O)(O)O)nsc2n(C)c1=O` [Compound III, [4-[2,3-difluoro-4-(trifluoromethyl)phenyl]-2-{[(5,7-dimethyl-4,6-dioxo-4,5,6,7-tetrahydro[1,2]thiazolo[5,4-d]pyrimidin-3-yl)acetyl]imino}-1,3-thiazol-3(2H)-yl]methyl dihydrogen phosphate] as the compound, how does the “maximal % reversal of mechanical punctate allodynia” value [1] read?
Answer: 19%

Question: What about the “maximal % reversal of hyperalgesia” value [2] of the same compound?
Answer: 19%

Question: And the “maximal % reversal of thermal hyperalgesia” value [3]?
Answer: 22%

Question: And the “maximal % reversal of mechanical hyperalgesia” value ([4]; Example 16, Table 19, FIG. 21)?
Answer: 17%

Question: And the “maximal % reversal of mechanical hyperalgesia” value ([4]; Example 17, Table 20, FIG. 23)?
Answer: 17%
